Measured values: patent publication US10550111B2, “Pyrimidine urea compound containing isoxazolines and use thereof” (SHENYANG SINOCHEM AGROCHEMICALS R&D CO., LTD, priority 2014, dated 2020)

Tests used:
Type in all cases: in vivo
[1] = system: broad-leaf weeds and grass weeds; test: General screening of herbicidal activity in greenhouse; settings: 1000 g a.i./hm^2;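 note: 0 means no visible effect and 100 means all weeds dead or not emerged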
Description: (§1) Determination of herbicidal activity of compounds of the present invention against weeds was carried out by the following procedures:
(§2) Seeds of monocotyledonous and dicotyledonous weeds were sown in nutrition soil in paper pot (7 cm diameter), covered with soil in 1 cm and grown in the greenhouse under good growth conditions (temperature, atmospheric humidity, water supply). The compounds of the present invention as emulsifiable concentrate, were applied in pre-emergence and post-emergence treatment by track sprayer (Engineer Research Ltd., pressure 1.95 kg/cm^2, volume 500 L/hm^2, track speed 1.48 km/h). Pre-emergence treatment was conducted after seeding 24 hours and post-emergence treatment was done when the respective weeds reached predetermined leaf stage (grass weed 2- to 3-leaf stage, broad-leaf weed 2- to 4-leaf stage), the state of growth of the respective weeds were visually observed to determine the growth inhibition rate (%) in accordance with the following evaluation standard.
(§3) Growth inhibition rate (%): 0=no discernible action: 100=all weeds dead or not emerged.

Zinnia elegans Jacq. = test: Bioassay of herbicidal activity in greenhouse (further screening)
Description: as §1, §2, §3

[2] = system: Abutilon theophrasti Medic.; test: as above
Description: as §1, §2, §3

[3] = system: Echinochloa crus-galli (L.) Beauv.; test: as above
Description: as §1, §2, §3

[4] = system: Setaria glauca (L.) Beauv.; test: as above
Description: as §1, §2, §3

CSCCC(=O)OCC1(C)CC(c2cc(-n3c(=O)cc(C(F)(F)F)n(C)c3=O)c(F)cc2Cl)=NO1 (centres unmarked) [Compound 54]
pre-emergence and post-emergence herbicidal activity against broad-leaf weeds and grass weeds [1]: good | Growth inhibition rate, Post-emergence treatment, Zinnia elegans Jacq. (Zinnia elegans Jacq.; dose 37.5 g a.i./hm^2): 90% | Growth inhibition rate, Post-emergence treatment, Zinnia elegans Jacq. (Zinnia elegans Jacq.; dose 150 g a.i./hm^2): 100% | Growth inhibition rate, Post-emergence treatment, Zinnia elegans Jacq. (Zinnia elegans Jacq.; dose 600 g a.i./hm^2): 100% | Growth inhibition rate, Pre-emergence treatment, Zinnia elegans Jacq. (Zinnia elegans Jacq.; dose 37.5 g a.i./hm^2): 0% | Growth inhibition rate, Pre-emergence treatment, Zinnia elegans Jacq. (Zinnia elegans Jacq.; dose 150 g a.i./hm^2): 20% | Growth inhibition rate, Pre-emergence treatment, Zinnia elegans Jacq. (Zinnia elegans Jacq.; dose 600 g a.i./hm^2): 60% | Growth inhibition rate, Post-emergence treatment, Abutilon theophrasti Medic. ([2]; dose 37.5 g a.i./hm^2): 100% | Growth inhibition rate, Post-emergence treatment, Abutilon theophrasti Medic. ([2]; dose 150 g a.i./hm^2): 100% | Growth inhibition rate, Post-emergence treatment, Abutilon theophrasti Medic. ([2]; dose 600 g a.i./hm^2): 100% | Growth inhibition rate, Pre-emergence treatment, Abutilon theophrasti Medic. ([2]; dose 37.5 g a.i./hm^2): 0% | Growth inhibition rate, Pre-emergence treatment, Abutilon theophrasti Medic. ([2]; dose 150 g a.i./hm^2): 35% | Growth inhibition rate, Pre-emergence treatment, Abutilon theophrasti Medic. ([2]; dose 600 g a.i./hm^2): 90% | Growth inhibition rate, Post-emergence treatment, Echinochloa crus-galli (L.) Beauv. ([3]; dose 37.5 g a.i./hm^2): 10% | Growth inhibition rate, Post-emergence treatment, Echinochloa crus-galli (L.) Beauv. ([3]; dose 150 g a.i./hm^2): 20% | Growth inhibition rate, Post-emergence treatment, Echinochloa crus-galli (L.) Beauv. ([3]; dose 600 g a.i./hm^2): 75% | Growth inhibition rate, Pre-emergence treatment, Echinochloa crus-galli (L.) Beauv. ([3]; dose 37.5 g a.i./hm^2): 0% | Growth inhibition rate, Pre-emergence treatment, Echinochloa crus-galli (L.) Beauv. ([3]; dose 150 g a.i./hm^2): 15% | Growth inhibition rate, Pre-emergence treatment, Echinochloa crus-galli (L.) Beauv. ([3]; dose 600 g a.i./hm^2): 80% | Growth inhibition rate, Post-emergence treatment, Setaria glauca (L.) Beauv. ([4]; dose 37.5 g a.i./hm^2): 35% | Growth inhibition rate, Post-emergence treatment, Setaria glauca (L.) Beauv. ([4]; dose 150 g a.i./hm^2): 70% | Growth inhibition rate, Post-emergence treatment, Setaria glauca (L.) Beauv. ([4]; dose 600 g a.i./hm^2): 98% | Growth inhibition rate, Pre-emergence treatment, Setaria glauca (L.) Beauv. ([4]; dose 37.5 g a.i./hm^2): 0% | Growth inhibition rate, Pre-emergence treatment, Setaria glauca (L.) Beauv. ([4]; dose 150 g a.i./hm^2): 20% | Growth inhibition rate, Pre-emergence treatment, Setaria glauca (L.) Beauv. ([4]; dose 600 g a.i./hm^2): 60%

Cn1c(C(F)(F)F)cc(=O)n(-c2cc(C3=NOC(C)(COC(=O)CCl)C3)c(Cl)cc2F)c1=O (centres unmarked) [Compound 50]
pre-emergence and post-emergence herbicidal activity against broad-leaf weeds and grass weeds [1]: good | Growth inhibition rate, Post-emergence treatment, Zinnia elegans Jacq. (Zinnia elegans Jacq.; dose 37.5 g a.i./hm^2): 98% | Growth inhibition rate, Post-emergence treatment, Zinnia elegans Jacq. (Zinnia elegans Jacq.; dose 150 g a.i./hm^2): 100% | Growth inhibition rate, Post-emergence treatment, Zinnia elegans Jacq. (Zinnia elegans Jacq.; dose 600 g a.i./hm^2): 100% | Growth inhibition rate, Pre-emergence treatment, Zinnia elegans Jacq. (Zinnia elegans Jacq.; dose 37.5 g a.i./hm^2): 0% | Growth inhibition rate, Pre-emergence treatment, Zinnia elegans Jacq. (Zinnia elegans Jacq.; dose 150 g a.i./hm^2): 30% | Growth inhibition rate, Pre-emergence treatment, Zinnia elegans Jacq. (Zinnia elegans Jacq.; dose 600 g a.i./hm^2): 90% | Growth inhibition rate, Post-emergence treatment, Abutilon theophrasti Medic. ([2]; dose 37.5 g a.i./hm^2): 100% | Growth inhibition rate, Post-emergence treatment, Abutilon theophrasti Medic. ([2]; dose 150 g a.i./hm^2): 100% | Growth inhibition rate, Post-emergence treatment, Abutilon theophrasti Medic. ([2]; dose 600 g a.i./hm^2): 100% | Growth inhibition rate, Pre-emergence treatment, Abutilon theophrasti Medic. ([2]; dose 37.5 g a.i./hm^2): 0% | Growth inhibition rate, Pre-emergence treatment, Abutilon theophrasti Medic. ([2]; dose 150 g a.i./hm^2): 35% | Growth inhibition rate, Pre-emergence treatment, Abutilon theophrasti Medic. ([2]; dose 600 g a.i./hm^2): 100% | Growth inhibition rate, Post-emergence treatment, Echinochloa crus-galli (L.) Beauv. ([3]; dose 37.5 g a.i./hm^2): 10% | Growth inhibition rate, Post-emergence treatment, Echinochloa crus-galli (L.) Beauv. ([3]; dose 150 g a.i./hm^2): 30% | Growth inhibition rate, Post-emergence treatment, Echinochloa crus-galli (L.) Beauv. ([3]; dose 600 g a.i./hm^2): 80% | Growth inhibition rate, Pre-emergence treatment, Echinochloa crus-galli (L.) Beauv. ([3]; dose 37.5 g a.i./hm^2): 0% | Growth inhibition rate, Pre-emergence treatment, Echinochloa crus-galli (L.) Beauv. ([3]; dose 150 g a.i./hm^2): 10% | Growth inhibition rate, Pre-emergence treatment, Echinochloa crus-galli (L.) Beauv. ([3]; dose 600 g a.i./hm^2): 80% | Growth inhibition rate, Post-emergence treatment, Setaria glauca (L.) Beauv. ([4]; dose 37.5 g a.i./hm^2): 15% | Growth inhibition rate, Post-emergence treatment, Setaria glauca (L.) Beauv. ([4]; dose 150 g a.i./hm^2): 65% | Growth inhibition rate, Post-emergence treatment, Setaria glauca (L.) Beauv. ([4]; dose 600 g a.i./hm^2): 98% | Growth inhibition rate, Pre-emergence treatment, Setaria glauca (L.) Beauv. ([4]; dose 37.5 g a.i./hm^2): 0% | Growth inhibition rate, Pre-emergence treatment, Setaria glauca (L.) Beauv. ([4]; dose 150 g a.i./hm^2): 30% | Growth inhibition rate, Pre-emergence treatment, Setaria glauca (L.) Beauv. ([4]; dose 600 g a.i./hm^2): 90%

Cn1c(C(F)(F)F)cc(=O)n(-c2cc(C3=NOC(C)(C(N)=O)C3)c(Cl)cc2F)c1=O (centres unmarked) [Compound 22]
pre-emergence and post-emergence herbicidal activity against broad-leaf weeds and grass weeds [1]: good | Growth inhibition rate, Post-emergence treatment, Zinnia elegans Jacq. (Zinnia elegans Jacq.; dose 37.5 g a.i./hm^2): 55% | Growth inhibition rate, Post-emergence treatment, Zinnia elegans Jacq. (Zinnia elegans Jacq.; dose 150 g a.i./hm^2): 90% | Growth inhibition rate, Post-emergence treatment, Zinnia elegans Jacq. (Zinnia elegans Jacq.; dose 600 g a.i./hm^2): 95% | Growth inhibition rate, Pre-emergence treatment, Zinnia elegans Jacq. (Zinnia elegans Jacq.; dose 37.5 g a.i./hm^2): 0% | Growth inhibition rate, Pre-emergence treatment, Zinnia elegans Jacq. (Zinnia elegans Jacq.; dose 150 g a.i./hm^2): 0% | Growth inhibition rate, Pre-emergence treatment, Zinnia elegans Jacq. (Zinnia elegans Jacq.; dose 600 g a.i./hm^2): 0% | Growth inhibition rate, Post-emergence treatment, Abutilon theophrasti Medic. ([2]; dose 37.5 g a.i./hm^2): 30% | Growth inhibition rate, Post-emergence treatment, Abutilon theophrasti Medic. ([2]; dose 150 g a.i./hm^2): 55% | Growth inhibition rate, Post-emergence treatment, Abutilon theophrasti Medic. ([2]; dose 600 g a.i./hm^2): 100% | Growth inhibition rate, Pre-emergence treatment, Abutilon theophrasti Medic. ([2]; dose 37.5 g a.i./hm^2): 0% | Growth inhibition rate, Pre-emergence treatment, Abutilon theophrasti Medic. ([2]; dose 150 g a.i./hm^2): 0% | Growth inhibition rate, Pre-emergence treatment, Abutilon theophrasti Medic. ([2]; dose 600 g a.i./hm^2): 0% | Growth inhibition rate, Post-emergence treatment, Echinochloa crus-galli (L.) Beauv. ([3]; dose 37.5 g a.i./hm^2): 0% | Growth inhibition rate, Post-emergence treatment, Echinochloa crus-galli (L.) Beauv. ([3]; dose 150 g a.i./hm^2): 5% | Growth inhibition rate, Post-emergence treatment, Echinochloa crus-galli (L.) Beauv. ([3]; dose 600 g a.i./hm^2): 10% | Growth inhibition rate, Pre-emergence treatment, Echinochloa crus-galli (L.) Beauv. ([3]; dose 37.5 g a.i./hm^2): 0% | Growth inhibition rate, Pre-emergence treatment, Echinochloa crus-galli (L.) Beauv. ([3]; dose 150 g a.i./hm^2): 0% | Growth inhibition rate, Pre-emergence treatment, Echinochloa crus-galli (L.) Beauv. ([3]; dose 600 g a.i./hm^2): 0% | Growth inhibition rate, Post-emergence treatment, Setaria glauca (L.) Beauv. ([4]; dose 37.5 g a.i./hm^2): 10% | Growth inhibition rate, Post-emergence treatment, Setaria glauca (L.) Beauv. ([4]; dose 150 g a.i./hm^2): 10% | Growth inhibition rate, Post-emergence treatment, Setaria glauca (L.) Beauv. ([4]; dose 600 g a.i./hm^2): 15% | Growth inhibition rate, Pre-emergence treatment, Setaria glauca (L.) Beauv. ([4]; dose 37.5 g a.i./hm^2): 0% | Growth inhibition rate, Pre-emergence treatment, Setaria glauca (L.) Beauv. ([4]; dose 150 g a.i./hm^2): 0% | Growth inhibition rate, Pre-emergence treatment, Setaria glauca (L.) Beauv. ([4]; dose 600 g a.i./hm^2): 0%

Cn1c(C(F)(F)F)cc(=O)n(-c2ccc(Cl)c(C3=NOC(C)(COC(=O)c4cc(Oc5ccc(C(F)(F)F)cc5Cl)ccc4[N+](=O)[O-])C3)c2)c1=O (centres unmarked) [Compound 345]
pre-emergence and post-emergence herbicidal activity against broad-leaf weeds and grass weeds [1]: good

Cn1c(C(F)(F)F)cc(=O)n(-c2cc(C3=NOC(C)(CO)C3)c(Cl)cc2F)c1=O (centres unmarked) [Compound 42]
pre-emergence and post-emergence herbicidal activity against broad-leaf weeds and grass weeds [1]: good

Cn1c(C(F)(F)F)cc(=O)n(-c2ccc(Cl)c(C3=NOC(C)(COS(C)(=O)=O)C3)c2)c1=O (centres unmarked) [Compound 366]
pre-emergence and post-emergence herbicidal activity against broad-leaf weeds and grass weeds [1]: good

CN(C)S(=O)(=O)OCC1(C)CC(c2cc(-n3c(=O)cc(C(F)(F)F)n(C)c3=O)c(F)cc2Cl)=NO1 (centres unmarked) [Compound 96]
pre-emergence and post-emergence herbicidal activity against broad-leaf weeds and grass weeds [1]: good

COc1c(Cl)ccc(Cl)c1C(=O)OCC1(C)CC(c2cc(-n3c(=O)cc(C(F)(F)F)n(C)c3=O)c(F)cc2Cl)=NO1 (centres unmarked) [Compound 66]
pre-emergence and post-emergence herbicidal activity against broad-leaf weeds and grass weeds [1]: good

Cn1c(C(F)(F)F)cc(=O)n(-c2ccc(Cl)c(C3=NOC(C)(C(=O)O)C3)c2)c1=O (centres unmarked) [Compound 282]
pre-emergence and post-emergence herbicidal activity against broad-leaf weeds and grass weeds [1]: good

Cn1c(C(F)(F)F)cc(=O)n(-c2ccc(Cl)c(C3=NOC(C)(CO)C3)c2)c1=O (centres unmarked) [Compound 320]
pre-emergence and post-emergence herbicidal activity against broad-leaf weeds and grass weeds [1]: good

Cn1c(C(F)(F)F)cc(=O)n(-c2ccc(Cl)c(C3=NOC(C)(COC(=O)CCc4ccccc4)C3)c2)c1=O (centres unmarked) [Compound 333]
pre-emergence and post-emergence herbicidal activity against broad-leaf weeds and grass weeds [1]: good
